Key:
recombinant human PDE4B = biological target: T1, recombinant human PDE4B (Homo sapiens, UniProt Q07343); experiment: In vitro inhibitory activity against PDE 4B enzyme (fluorescence polarization); assay type: biochemical; details: 1 μM cAMP substrate
T1 construct: amino acid 305-end; GST (N); host or cells: Sf9 insect cells (baculovirus)

recombinant human PDE3A = biological target: T2, recombinant human PDE3A (Homo sapiens, UniProt Q14432); experiment: In vitro inhibitory activity against PDE 3A enzyme (fluorescence polarization); assay type: biochemical; details: 1 μM cAMP substrate
T2 construct: amino acid 669-end; GST (N); host or cells: Sf9 insect cells (baculovirus)
Experimental: Experimental Example 3: In vitro detection of the inhibitory activity of the compound against PDE 3A enzyme
Objective: to determine the AMP/GMP expression based on fluorescence polarization, i.e., to trace binding of AMP/GMP to antibody so as to indicate enzyme activity.
Buffer solution: 10 mM Tris—HCl (pH 7.5), 5 mM MgCl2, 0.01% Brij 35, 1 mM dithiothreitol (DTT), and 1% DMSO.
Enzyme: recombinant human PDE3A (Gene accession number: NM 000921; amino acid 669-end) was expressed by baculovirus in Sf9 insect cells using an N-terminal GST tag, with the molecular weight being 84 kDa.
Enzyme substrate: 1 μM cAMP Detection: TranscreenerOAMP2/GMP2 antibody and AMP2/GMP2 AlexaFluor633 tracer.
Procedures: • 1. The recombinant human PDE3A enzyme and enzyme substrate (μM cAMP) were each dissolved in newly prepared experimental buffer solution; • 2. […] The measurement range of fluorescence polarization was […]. • Data analysis: the fluorescence polarization signal was converted to nM based on AMP/GMP standard curve and the percentage enzyme activity relative to DMSO control calculated by Excel. […] The measurement range of fluorescence polarization was Ex/Em=620/688. • […]

CYP2D6 = biological target: T3, CYP2D6 (Homo sapiens, UniProt P10635); experiment: Inhibition of human liver microsomal CYP2D6 (dextromethorphan probe); assay type: in vitro ADME; details: human liver microsomes
T3 construct: co-incubated with human liver microsomes; from tissue; host or cells: human liver microsomes
Experimental: (§1) Experimental Example 6: Inhibitory effect on activity of isoenzymes (CYP1A2, CYP2C9, CYP2C19, CYP2D6 and CYP3A4) of human liver microsomal cytochrome P450 A total of 5 specific probe substrates of 5 isoenzymes of CYP, namely phenacetin (CYP1A2), diclofenac (CYP2C9), (S)-mephenytoin (CYP2C19), dextromethorphan (CYP2D6) and midazolam (CYP3A4) were each co-incubated with human liver microsomes and the compound of formula (I), and then reduced nicotinamide adenine dinucleotide phosphate (NADPH) was added to initiate the reaction. After the reaction was completed, the samples were treated, and the concentrations of 5 metabolites (acetaminophen, 4′-hydroxydiclofenac, 4′-hydroxymephenytoin, dextrorphan and l′-hydroxymidazolam) generated from the specific substrates were quantitatively detected by lC-MS/MS to calculate the correcnondino- half maximal inhibitory concentrationc (IC50)

CYP2C19 = biological target: T4, CYP2C19 (Homo sapiens, UniProt P33261); experiment: Inhibition of human liver microsomal CYP2C19 ((S)-mephenytoin probe); assay type: in vitro ADME; details: human liver microsomes
T4 construct: co-incubated with human liver microsomes; from tissue; host or cells: human liver microsomes
Experimental: as §1

CYP2C9 = biological target: T5, CYP2C9 (Homo sapiens, UniProt P11712); experiment: Inhibition of human liver microsomal CYP2C9 (diclofenac probe); assay type: in vitro ADME; details: human liver microsomes
T5 construct: co-incubated with human liver microsomes; from tissue; host or cells: human liver microsomes
Experimental: as §1

[1] = tested on: TNF-α in human peripheral blood mononuclear cells; experiment: Inhibitory activity against TNF-α in LPS-stimulated hPBMCs (ELISA); assay type: cell-based; details: PBMC, 1 ng/mL LPS, 24 h, read-out: hPBMC IC50 (TNF-α)
Excerpt: Experimental Example 8: In vitro detection of the inhibitory activity of the compound against TNF-α in human peripheral blood mononuclear cells Objective: to measure the anti-inflammatory activity at cellular level of the test compound based on the level of TNF-α in human peripheral blood mononuclear cells (hPBMCs).
Procedures: • 1. Normal human whole blood was collected into an EDTA anticoagulation tube; • 2. The PBMC was separated by Ficoll density gradient centrifugation and counted, and the cell concentration was adjusted to 2×10^6 cells/mL; • 3. To each well of a U-bottom 96-well plate were added 2×10^5 cells, 1 ng/mL LPS, and solutions of the compound of formula (I) in DMSO at concentrations of […], 1 μM, 100 nM, 10 nM, 1 nM, 100 pM and 10 pM, with a system volume of 200 μL per well; • 4. The mixture was incubated for 24 h, and then the supernatant was collected; • 5. The level of TNF-α in the supernatant was detected by ELISA, an inhibition curve was fitted using Graphpad Prism software, and the IC50 was calculated.

T2 sequence (Q14432 669-1141 limits assumed): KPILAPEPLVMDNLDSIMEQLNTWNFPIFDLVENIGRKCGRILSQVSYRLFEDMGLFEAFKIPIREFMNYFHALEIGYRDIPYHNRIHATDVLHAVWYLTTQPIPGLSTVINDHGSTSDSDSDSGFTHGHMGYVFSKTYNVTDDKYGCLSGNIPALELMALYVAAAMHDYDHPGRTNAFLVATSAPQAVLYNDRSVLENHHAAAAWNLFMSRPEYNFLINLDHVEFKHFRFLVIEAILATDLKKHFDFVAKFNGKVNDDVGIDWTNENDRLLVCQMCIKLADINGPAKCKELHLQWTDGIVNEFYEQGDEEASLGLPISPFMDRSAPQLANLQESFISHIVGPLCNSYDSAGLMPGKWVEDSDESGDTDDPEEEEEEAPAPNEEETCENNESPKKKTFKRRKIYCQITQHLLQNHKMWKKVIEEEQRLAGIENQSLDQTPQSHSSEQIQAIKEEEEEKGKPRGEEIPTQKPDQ
T5 sequence (P11712 whole entry): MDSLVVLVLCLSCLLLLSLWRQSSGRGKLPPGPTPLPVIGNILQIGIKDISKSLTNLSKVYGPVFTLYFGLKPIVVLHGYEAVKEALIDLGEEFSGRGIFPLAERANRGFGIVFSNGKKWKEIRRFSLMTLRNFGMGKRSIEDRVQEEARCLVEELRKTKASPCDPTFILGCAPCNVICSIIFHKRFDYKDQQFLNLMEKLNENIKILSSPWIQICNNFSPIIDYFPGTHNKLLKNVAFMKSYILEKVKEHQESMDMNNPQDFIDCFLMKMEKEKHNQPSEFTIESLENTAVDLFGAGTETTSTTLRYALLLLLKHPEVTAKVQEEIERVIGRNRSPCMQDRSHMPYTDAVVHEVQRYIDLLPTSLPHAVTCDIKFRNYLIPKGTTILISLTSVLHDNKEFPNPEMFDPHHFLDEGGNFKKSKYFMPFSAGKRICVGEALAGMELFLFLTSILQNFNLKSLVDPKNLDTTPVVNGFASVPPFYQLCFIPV
T4 sequence (P33261 whole entry): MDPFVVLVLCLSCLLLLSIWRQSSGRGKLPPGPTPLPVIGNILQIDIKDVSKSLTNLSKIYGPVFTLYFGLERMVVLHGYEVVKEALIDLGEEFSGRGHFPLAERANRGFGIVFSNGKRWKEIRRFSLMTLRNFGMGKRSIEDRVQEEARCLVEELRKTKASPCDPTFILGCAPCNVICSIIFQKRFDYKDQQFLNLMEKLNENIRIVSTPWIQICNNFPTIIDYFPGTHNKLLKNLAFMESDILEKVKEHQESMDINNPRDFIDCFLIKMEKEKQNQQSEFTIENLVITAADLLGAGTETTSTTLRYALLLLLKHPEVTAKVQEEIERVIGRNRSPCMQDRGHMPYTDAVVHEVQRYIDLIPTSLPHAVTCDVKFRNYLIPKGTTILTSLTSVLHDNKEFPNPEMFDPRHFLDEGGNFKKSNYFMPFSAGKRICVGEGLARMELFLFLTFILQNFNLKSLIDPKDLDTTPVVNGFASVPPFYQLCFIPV
T3 sequence (P10635 whole entry): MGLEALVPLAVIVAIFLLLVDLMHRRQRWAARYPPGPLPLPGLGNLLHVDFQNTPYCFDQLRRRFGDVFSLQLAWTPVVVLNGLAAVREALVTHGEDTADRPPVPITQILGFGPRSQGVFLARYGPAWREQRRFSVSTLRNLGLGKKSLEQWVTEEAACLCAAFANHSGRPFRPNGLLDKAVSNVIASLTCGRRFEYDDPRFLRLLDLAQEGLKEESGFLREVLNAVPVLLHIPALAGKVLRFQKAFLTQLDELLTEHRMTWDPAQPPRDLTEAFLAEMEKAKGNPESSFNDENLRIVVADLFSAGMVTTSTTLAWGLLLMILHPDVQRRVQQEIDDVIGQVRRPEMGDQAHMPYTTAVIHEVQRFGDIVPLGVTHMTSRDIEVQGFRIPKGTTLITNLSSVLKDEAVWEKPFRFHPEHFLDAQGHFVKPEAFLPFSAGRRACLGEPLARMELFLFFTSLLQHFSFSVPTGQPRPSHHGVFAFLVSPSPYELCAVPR
T1 sequence (Q07343 305-736 limits assumed): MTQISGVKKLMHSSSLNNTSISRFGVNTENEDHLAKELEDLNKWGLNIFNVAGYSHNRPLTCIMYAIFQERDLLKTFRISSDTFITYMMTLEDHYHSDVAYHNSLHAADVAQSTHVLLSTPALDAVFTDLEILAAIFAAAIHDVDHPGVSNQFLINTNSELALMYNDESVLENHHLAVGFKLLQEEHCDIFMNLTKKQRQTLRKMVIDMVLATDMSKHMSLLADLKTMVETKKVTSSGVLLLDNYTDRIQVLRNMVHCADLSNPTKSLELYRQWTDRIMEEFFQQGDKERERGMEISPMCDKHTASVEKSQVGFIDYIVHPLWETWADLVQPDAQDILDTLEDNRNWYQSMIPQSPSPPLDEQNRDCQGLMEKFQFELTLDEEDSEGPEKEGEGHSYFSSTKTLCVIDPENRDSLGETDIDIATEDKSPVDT

IC50 (recombinant human PDE4B): 0.41 nM
IC50 (recombinant human PDE3A): 0.03 nM
IC50 (CYP2D6): ≥ 50000 nM
IC50 (CYP2C19): ≥ 50000 nM
IC50 (CYP2C9): 31000 nM
IC50 [1]: 29.2 nM
SMILES: CCOc1cc2c(cc1OC)-c1c/c(=N\c3c(C)cc(C)cc3C)n(CCNC(=O)c3c(O)nnn3C)c(=O)n1CC2 [Compound of formula (I)]

Source: US20230060174A1, “PHARMACEUTICAL COMPOSITION OF TRICYCLIC PDE3/PDE4 DUAL INHIBITOR COMPOUND” (CHIA TAI TIANQING PHARMACEUTICAL GROUP CO., LTD., priority 2020, published 2023)
